Results: PMC10938758, “A phenotypic screen of the Global Health Priority Box identifies an insecticide with anthelmintic activity” (Parasites & Vectors, 2024)

Columns and labels:
[1] = test system: adult females of H. contortus; experiment: Motility of H. contortus adult females (video scoring); design: species or system Haemonchus contortus; settings: 40 μM
Description: The activity of two test compounds was assessed on adult female specimens of H. contortus in an established assay. The compound was added in triplicate to the wells of a 24-well plate (Corning, USA) at a concentration of 40 μM in 500 μl of RPMI*. Two positive-control compounds, monepantel and moxidectin, and a negative control containing 1% (v/v) DMSO only were included in triplicate on the same plate. Three adult females were added to each of the triplicate wells containing either the test compound or the controls and placed in a CO2 incubator (10% [v/v] CO2, 38 °C, > 90% relative humidity) for 24 h. A video recording (30 s) of each well was taken at 3 h, 6 h, 12 h and 24 h during the total incubation period to assess the reduction in worm motility, which was scored as 3 (‘good’), 2 (‘low’), 1 (‘very low’) or 0 (‘no movement’; cf.). For each test or control compound, the motility scores for each of the triplicate wells were calculated, normalised with reference to the negative control (100% motility) and recorded as a percentage. A two-way ANOVA with a Tukey multiple comparison test was used to establish statistically significant differences in worm motility.

[2] = test system: C. elegans young adults; experiment: C. elegans dose-response assay, motility; design: species or system Caenorhabditis elegans
Description: The dose–response assay for C. elegans followed a well-established protocol and was employed to evaluate the potency of hit compounds against this nematode. Test and positive-control compounds as well as negative controls were prepared in 96-well microplates (cf.). One hundred C. elegans in 50 μl of LB* were added to each well to give a final volume of 100 μl. Plates were then placed in an incubator at 20 °C for 40 h. At 40 h, worm activity was captured using a WMicroTracker ONE unit. Raw activity counts for each well were normalised to the negative controls. The compound concentrations were log10-transformed and fitted using a variable-slope four-parameter equation, using the ordinary least squares fit model, employing GraphPad Prism (v.9.1.0). A one-way ANOVA with a Tukey multiple comparison test or an unpaired t-test was used to establish statistically significant differences in larval motility.

[3] = Cytotoxicity on HepG2 cells (glucose medium, crystal violet); type: cell-based; settings: human, D-glucose medium, read-out: half-maximal cytotoxic concentration (CC50)
Description: The cytotoxic and mitotoxic activity of MMV1794206 on HepG2 human hepatoma cells was evaluated using an established protocol. The test compounds were serially diluted (seven-point, twofold serial dilution, 40–0.63 µM) in Dulbecco’s modified Eagle medium (DMEM; Thermo Fisher Scientific, USA), with GlutaMax™ supplemented with 25 mM D-glucose (cytotoxicity) or D-galactose (mitotoxicity), 10% heat-inactivated foetal bovine serum (FBS), 100 IU/ml of penicillin, 100 µg/ml of streptomycin and 0.25 µg/ml of amphotericin B (denoted as DMEM*). Monepantel and moxidectin (prepared in the same manner as the test compound) were included as reference compounds. Two compounds, doxorubicin (cytotoxic; Sigma-Aldrich, USA) and M-666 (mitotoxic; [57]), were used as positive controls at a single concentration of 10 µM. A solution of DMEM* + 0.25% (v/v) DMSO was used as a negative control. HepG2 cells were seeded into wells of a 96-well plate in 80 µl of DMEM* (at 1 × 10^5 cells per well) and allowed to adhere for 16 h at 37 °C and 5% (v/v) CO2 at > 90% humidity prior to incubation with individual compounds, at a final volume of 100 µl. […] Following 48 h of incubation with compounds, cell viability was determined by crystal violet staining. The absorbance (595 nm) of treated cells was normalised using the negative controls (viability: 100%) to calculate the cell viability. […]

[4] = test system: HepG2 human hepatoma cells; experiment: Mitotoxicity on HepG2 cells (galactose medium, crystal violet); type: cell-based; settings: 48 h, D-galactose medium, serum-starved
Description: The cytotoxic and mitotoxic activity of MMV1794206 on HepG2 human hepatoma cells was evaluated using an established protocol. […] Monepantel and moxidectin (prepared in the same manner as the test compound) were included as reference compounds. Two compounds, doxorubicin (cytotoxic; Sigma-Aldrich, USA) and M-666 (mitotoxic; [57]), were used as positive controls at a single concentration of 10 µM. A solution of DMEM* + 0.25% (v/v) DMSO was used as a negative control. HepG2 cells were seeded into wells of a 96-well plate in 80 µl of DMEM* (at 1 × 10^5 cells per well) and allowed to adhere for 16 h at 37 °C and 5% (v/v) CO2 at > 90% humidity prior to incubation with individual compounds, at a final volume of 100 µl. For the assessment of mitochondrial toxicity, cells were starved of serum (DMEM* without FBS) for 4 h prior to the incubation with compounds [60, 61]. Following 48 h of incubation with compounds, cell viability was determined by crystal violet staining. The absorbance (595 nm) of treated cells was normalised using the negative controls (viability: 100%) to calculate the cell viability. All compounds and controls were tested in triplicate. […]

SMILES: CC(F)c1ncnc(NCCc2ccc(OC(F)(F)F)cc2)c1Cl (centres unmarked) [MMV1794206, flufenerim]
- Reduction of motility of adult females of H. contortus ([1]; 3 h): ~ 33%
- Reduction of motility of adult females of H. contortus ([1]; 6 h): ~89%
- Reduction of motility of adult females of H. contortus ([1]; 12 h): 100%
- Reduction of motility of adult females of H. contortus ([1]; 24 h): ~100%
- Maximum motility inhibition (MMI), C. elegans ([2]; 40 h of incubation): 100%
- IC50 ([2]; Caenorhabditis elegans, 40 h, read-out: IC50, C. elegans young adult motility, 40 h of incubation): 220 nM
- CC50 at 48 h [3]: < 700 nM
- half-maximal mitotoxic concentration (MC50) [4]: < 0.7 µM
